Results on six compounds are retold here after US20260337191A1, “CRYSTAL FORM OF EMRACLIDINE, PREPARATION METHOD THEREFOR, AND USE THEREOF” (Cerevel Therapeutics, LLC, priority 2022, published 2026).

The conditions of series [1]: Phase-Ib clinical result, Cerevel Therapeutics; cited from earlier work.
Series [2] in a line: Thermal gravimetric analysis (TGA). Type of series: physicochemical. Particulars: 10° C./min, N2. Here is the method:
The thermal gravimetric analysis (TGA) pattern as described in the invention is collected by TA Q500. The parameters for the thermal gravimetric analysis (TGA) method described in the invention are as follows: • scanning speed: 10° C./min, • protective gas: N2.

A short description of series [3]: Storage stability of crystal form drug substance (HPLC purity and XRPD). The series is classed as physicochemical. The protocol: The X-ray powder diffraction pattern described in the invention is collected by a Bruker X-ray powder diffractometer. The parameters for the X-ray powder diffraction method according to the invention are as follows: • X-ray light source: Cu, Kα, • Kα1 (Å): 1.54060; Kα2 (Å): 1.54439, • Kα2/Kα1 intensity ratio: 0.50.
An appropriate amount of a crystal-form-CSI sample was packaged under corresponding packaging conditions and stored at 40° C./75% RH for a certain period of time, the purity and crystal form were determined by HPLC and XRPD, and the results are shown in Table 7.
Open: a sample was placed in a glass vial without a lid and stored in corresponding environment while the vial was open.
An appropriate amount of a crystal-form-CSII sample was packaged under corresponding packaging conditions and stored for a certain period of time at 25° C./60% RH, 40° C./75% RH, and 60° C./75% RH, the purity and crystal form were determined by HPLC and XRPD, and the result is shown in Table 12.
Sealing: The sample was placed in a glass vial, which was covered by a lid and sealed in a double-layer PE bag, followed by an aluminum foil bag. […]
Sealed: The sample was placed in a glass vial, which was covered by a lid and sealed in a double-layer PE bag, followed by an aluminum foil bag. […]
An appropriate amount of a crystal-form-CSV sample was packaged under corresponding packaging conditions and stored for a certain period of time at 25° C./60% RH, 40° C./75% RH, and 60° C./75% RH, the purity and crystal form were determined by HPLC and XRPD, and the result is shown in Table 16.

A short description of series [4]: Crystal form stability in formulation process, XRPD. Type of series: physicochemical. Conditions: formula Table 8, process Table 10, XRPD. The protocol: A crystal-form-CSI formulation was prepared by using the formulation formula shown in table 8 and the formulation process shown in table 10, and a formula for mixture of excipients is shown in table 9. A mixture of excipients and the sample before and after the formulation formulas were tested by XRPD, and the result is shown in FIG. 14.
A crystal-form-CSII formulation was prepared by using the formulation formula shown in Table 8 and the formulation process shown in Table 10, and an excipient formula is shown in Table 9. A mixture of excipients and the sample before and after the formulation formulas were tested by XRPD, and the result is shown in FIG. 19.
A crystal-form-CSV formulation was prepared by using the formulation formula shown in Table 8 and the formulation process shown in Table 10, and an excipient formula is shown in Table 9. A mixture of excipients and the sample before and after the formulation formulas were tested by XRPD, and the result is shown in FIG. 30.

A short description of series [5]: Stability under mechanical force: tableting, XRPD. Type of series: physicochemical. Particulars: 15 KN, φ 6 mm round tooling, XRPD before and after.
Series [6] can be described thus: Stability under mechanical force: ball milling, XRPD. The series is classed as physicochemical. Conditions: 500 rpm, 5 minutes, XRPD before and after. Here is the method:
A crystal-form-CSII sample was ball-milled at a vibration speed of 500 rpm for 5 minutes using a ball mill, the sample before and after ball milling was tested by XRPD, the test result is shown in FIG. 17, and crystal form CSII is not changed after ball milling.
A crystal-form-CSIII sample was ball-milled at a vibration speed of 500 rpm for 5 minutes using a ball mill. The sample before and after ball milling was tested by XRPD, the test result is shown in FIG. 22, and crystal form CSIII is not changed after the ball milling.
A crystal-form-CSIV sample was ball-milled at a vibration speed of 500 rpm for 5 minutes using a ball mill, the sample before and after ball milling was tested by XRPD, the test result is shown in FIG. 25, and crystal form CSIV is not changed after ball milling.
A crystal-form-CSV sample was ball-milled at a vibration speed of 500 rpm for 5 minutes using a ball mill, the sample before and after ball milling was tested by XRPD, the test result is shown in FIG. 28, and crystal form CSV is not changed after ball milling.

A short description of series [7]: Hygroscopicity by dynamic vapor sorption (DVS). Type of series: physicochemical. Conditions: for weight increase due to hygroscopicity: 25° C. Here is the method: The dynamic vapor sorption (DVS) pattern for the experiment is collected by an Intrinsic dynamic vapor sorption instrument manufactured by Surface Measurement Systems Ltd. (SMS). Control software for the instrument is DVS-Intrinsic control software. The method parameters of the dynamic vapor sorption instrument are as follows: • temperature: 25° C., • carrier gas, and flow rate: N2, and 200 ml/min, • mass change per unit time: 0.002%/min, • relative humidity range: 0% RH-95% RH.
About 10 mg of a crystal-form-CSI sample was taken and tested for hygroscopicity using a dynamic vapor sorption (DVS) instrument, with a relative humidity cycle of 30%-90%-0%-90% RH, and a mass change for each humidity was recorded. The sample was tested by XRPD before and after DVS testing. […] The DVS pattern of crystal form CSI is shown in FIG. 13, and the weight increase of crystal form CSI due to hygroscopicity is 0.36% at 30%-80% RH.
About 10 mg of a crystal-form-CSII sample was taken and tested for hygroscopicity using a dynamic vapor sorption (DVS) instrument, with a relative humidity cycle of 0%-90%-0% RH, and a mass change for each humidity was recorded. The sample was tested by XRPD before and after DVS testing. […] The DVS pattern of crystal form CSII is shown in FIG. 18, and the weight increase of crystal form CSII due to hygroscopicity is 0.28% at 0%-80% RH.
About 10 mg of a crystal-form-CSIII sample was taken and tested for hygroscopicity using a dynamic vapor sorption (DVS) instrument, with a relative humidity cycle of 0%-90%-0% RH, and a mass change for each humidity was recorded. The sample was tested by XRPD before and after DVS testing. […] The DVS pattern of crystal form CSIII is shown in FIG. 23, and the weight increase of crystal form CSIII due to hygroscopicity is 0.21% at 0%-80% RH.
About 10 mg of a crystal-form-CSIV sample was taken and tested for hygroscopicity using a dynamic vapor sorption (DVS) instrument, with a relative humidity cycle of 0%-90%-0% RH, and a mass change for each humidity was recorded. The sample was tested by XRPD before and after DVS testing. […] The DVS pattern of crystal form CSIV is shown in FIG. 26, and the weight increase of crystal form CSIV due to hygroscopicity is 0.11% at 0%-80% RH.
About 10 mg of a crystal-form-CSV sample was taken and tested for hygroscopicity using a dynamic vapor sorption (DVS) instrument, with a cycle of 30%-90%-0%-90% RH, and a mass change for each humidity was recorded. The sample was tested by XRPD before and after DVS testing. […] The DVS pattern of crystal form CSV is shown in FIG. 29, and the weight increase of crystal form CSV due to hygroscopicity is 0.29% at 30%-80% RH.

[8] abbreviates: heated from room temperature to 180° C.

For `Cc1cc(C)c2c(n1)CN(C(=O)CC1CN(c3ccnc(C(F)(F)F)c3)C1)C2` [Emraclidine, 1-(2,4-dimethyl-5,7-dihydro-6H-pyrrolo[3,4-b]pyridin-6-yl)-2-{1-[2-(trifluoromethyl)pyridin-4-yl]azetidin-3-yl}ethanone], the “antipsychotic activities compared to placebos” value in series [1] is “clinically significant antipsychotic activities”.

Consider `Cc1cc(C)c2c(n1)CN(C(=O)CC1CN(c3ccnc(C(F)(F)F)c3)C1)C2` [Crystal Form CSII], for which the TGA weight loss entry in series [2] (setting [8]) was “substantially no weight loss”. For the same compound, the “stable for at least” value is reported as “at least 6 months” in series [3] (25° C./60% RH), “at least 6 months” in series [3] (40° C./75% RH) and “at least 1 month” in series [3] (60° C./75% RH). The “Crystal Form” value in series [3] (25° C./60% RH, sealed, 6 month) is “Form CSII”; in series [3] (40° C./75% RH, sealed, 6 month), “Form CSII”; in series [3] (60° C./75% RH, sealed, 1 month), “Form CSII”; in series [3] (initial (before storage)), “Form CSII”. For the same compound, the Purity in series [3] (25° C./60% RH, sealed, 6 month) worked out at 99.60%; in series [3] (40° C./75% RH, sealed, 6 month), 99.57%; in series [3] (60° C./75% RH, sealed, 1 month), 99.55%; in series [3] (initial (before storage)) it was 99.56%. Further, the “crystal form after formulation formula processes” value in series [4] was “not changed”. Moreover, the “crystal form after tableting” value in series [5] is reported as “not changed”. Moreover, the “crystal form after ball milling” value in series [6] is on record as “not changed”. In series [7] (0%-80% RH), the “weight increase due to hygroscopicity” value turned out to be 0.28%. In addition, the “change in sample properties after humidity cycle” value (“change in sample properties” below) in series [7] (0%-90%-0% RH cycle) was “no significant change in sample properties”. Besides, the “crystal form after DVS testing” value in series [7] (0%-90%-0% RH cycle) was “not changed”.

`Cc1cc(C)c2c(n1)CN(C(=O)CC1CN(c3ccnc(C(F)(F)F)c3)C1)C2` [Crystal Form CSV] showed a TGA weight loss in series [2] (heated from 35° C. to 150° C.) of 3.8%. The “stable for at least” value in series [3] (25° C./60% RH) is listed as “at least 6 months”; in series [3] (40° C./75% RH), “at least 6 months”; in series [3] (60° C./75% RH), “at least 2 month”. Also, the “Crystal Form” value was “Form CSV” in series [3] (25° C./60% RH, sealed, 6 month); “Form CSV” in series [3] (40° C./75% RH, sealed, 6 month); “Form CSV” in series [3] (60° C./75% RH, sealed, 2 month); “Form CSV” in series [3] (initial (before storage)). Besides, the Purity in series [3] (25° C./60% RH, sealed, 6 month) is given as 99.96%; in series [3] (40° C./75% RH, sealed, 6 month), 99.96%; in series [3] (60° C./75% RH, sealed, 2 month), 99.95%; in series [3] (initial (before storage)) it was 99.96%. Moreover, the “crystal form after formulation formula processes” value in series [4] is on record as “not changed”. Moreover, in series [5], the “crystal form after tableting” value was “not changed”. Also, the “crystal form after ball milling” value in series [6] is on record as “not changed”. Moreover, the “weight increase due to hygroscopicity” value in series [7] (30%-80% RH) is 0.29%. Also, in series [7] (30%-90%-0%-90% RH cycle), the “change in sample properties” value was “no significant change in sample properties”. For the same compound, the “crystal form after DVS testing” value in series [7] (30%-90%-0%-90% RH cycle) is reported as “not changed”.

In the case of `Cc1cc(C)c2c(n1)CN(C(=O)CC1CN(c3ccnc(C(F)(F)F)c3)C1)C2` [Crystal Form CSIV], in series [2] (setting [8]), the TGA weight loss entry is on record as “substantially no weight loss”. For the same compound, the “stable for at least” value in series [3] (25° C./60% RH) was “at least 6 months”; in series [3] (40° C./75% RH), “at least 6 months”; in series [3] (60° C./75% RH) it was “at least 1 month”. Also, the “Crystal Form” value is recorded as “Form CSIV” in series [3] (25° C./60% RH, sealed, 6 month); “Form CSIV” in series [3] (40° C./75% RH, sealed, 6 month); “Form CSIV” in series [3] (60° C./75% RH, sealed, 1 month); “Form CSIV” in series [3] (initial (before storage)). The “crystal form after ball milling” value in series [6] is listed as “not changed”. Besides, the “weight increase due to hygroscopicity” value in series [7] (0%-80% RH) came to 0.11%. The “change in sample properties” value in series [7] (0%-90%-0% RH cycle) is reported as “no significant change in sample properties”. Also, the “crystal form after DVS testing” value in series [7] (0%-90%-0% RH cycle) was “not changed”.

In the case of `Cc1cc(C)c2c(n1)CN(C(=O)CC1CN(c3ccnc(C(F)(F)F)c3)C1)C2` [Crystal Form CSI], the “stable for at least” value in series [3] (40° C./75% RH) was “at least 6 months”. Further, the “Crystal Form” value in series [3] (40° C./75% RH, open, 6 month) is listed as “Form CSI”; in series [3] (initial (before storage)), “Form CSI”. Moreover, the Purity in series [3] (40° C./75% RH, open, 6 month) amounted to 99.59%; in series [3] (initial (before storage)), 99.53%. Further, in series [4], the “crystal form after formulation formula processes” value is given as “not changed”. Moreover, the “crystal form after tableting” value in series [5] was “remains unchanged”. Also, the “crystal form after ball milling” value in series [6] was “remains unchanged”. Moreover, the “change in sample properties” value in series [7] (0%-90%-0% RH cycle) and in series [7] (30%-90%-0%-90% RH cycle) was “no significant change in sample properties” throughout. In series [7] (30%-80% RH), the “weight increase due to hygroscopicity” value came to 0.36%. Also, the “crystal form after DVS testing” value in series [7] (30%-90%-0%-90% RH cycle) is given as “remains unchanged”.

As to `Cc1cc(C)c2c(n1)CN(C(=O)CC1CN(c3ccnc(C(F)(F)F)c3)C1)C2` [Crystal Form CSIII], the TGA weight loss entry in series [2] (heated from room temperature to 170° C.) was “substantially no weight loss”. Also, in series [3] (40° C./75% RH), the “stable for at least” value was “at least 2 months”. The “Crystal Form” value in series [3] (40° C./75% RH, sealed, 2 month) is “Form CSIII”; in series [3] (initial (before storage)) it was “Form CSIII”. For the same compound, the “crystal form after ball milling” value in series [6] is “not changed”. Moreover, in series [7] (0%-80% RH), the “weight increase due to hygroscopicity” value is reported as 0.21%. Also, the “crystal form after DVS testing” value in series [7] (0%-90%-0% RH cycle) is “not changed”.
